Test results published in patent US20110201105A1, “LACTATION-ASSOCIATED POLYPEPTIDES” (Dairy Australia Limited, priority 2007, published 2011).

B1: LAM 17: FGL2: Fibrinogen like-1 (Table 24); tammar polypeptide SEQ ID NO 47, bovine SEQ ID NO 107 (protein, UniProt Q29RY7 16-441, looked up)
Fibroleukin: TYGFLVVANNETEEIKDEAAQNACRVRLESRGRCEEEGECPYQVNLPPLTIQLPKQFSRIEEVFKEVQNLKEIVNSLKKTCQDCKLQADDSRDPGRNGLLLPGTGAPGETGDNRVRELEGEVNKLSSDLKNAKEEIDVLQGRLEKLNLVNMNNIEQYVDSKVANLTFVVNSLDGKCSSKCPRQEQIQSLPVQQHLIYKDCSEYYTIGKRSSELYRVTPEPRNSSFEVFCDMETMAGGWTVLQARVDGSTNFTRTWQDYKVGFGNLRREFWLGNDKIHLLTKSKDMILRIDLEDFNGIKLYALYDHFYVANEFLKYRLHIGNYNGTAGDALRFSKHYNHDLKFFTTPDRDNDRYPSGNCGLYYSSGWWFDACLSANLNGKYYHQKYRGVRNGIFWGTWPGISEAQPGGYKSSFKEVKMMIRPKHFKP

Columns and labels:
ERK = ERK assay for cell growth-promoting activity (TGR assay), Swiss 3T3 fibroblast cells; format: cell-based; conditions: tammar LAM corresponding to the bovine sample of Table 24
Description: (§1) Plasmids containing Tammar wallaby LAMs were directionally cloned into the expression vector pCMV Sport 6.0, and then transfected into the human kidney cell line HK293. A total of 1 μg of LAM-containing plasmid DNA and 10 ng of pEGFP-C1 plasmid was introduced into 70% confluent HK293 cells in 2 cm^2 wells containing 500 ul of opti-MEM-1 media. Transfection success was assessed by observing green fluorescence of cells by fluorescent microscopy. After 48 hours conditioned media containing the secreted polypeptide was collected and frozen at −20° C. The media containing the secreted polypeptides was then used directly in a variety of bioactivity assays. For the assays described below, samples of secreted polypeptides were aliquoted into individual wells of 96 or 384 well plates and stored, prior to assaying, either frozen or lyophilized.
(§2) A negative control created by transfection with an insertless vector was used in all assays. For the assays described in Examples 4A, 4B, 4C and 4D results for samples were in the form of relative fluorescence units (RFU) as described herein. […] In some cases, RFU less than two standard deviations from the mean were considered significant if the LAM sample in question produced a positive result in another assay.
Extracellular signal-regulated protein kinase (ERK) is a common and central signal transduction pathway component of tyrosine kinase receptor. Activation of ERK is indicative of an extracellular proliferation signal and provides an index of a growth promoting agent.
Swiss 3T3 fibroblast cells were plated into 384 well plates, grown to confluence and starved overnight with serum-free medium. Cells were then treated for 10 minutes with a LAM polypeptide prepared as described above. Cells were then lysed and assayed for activation of ERK. Samples were assessed for changes in the activity of ERK.
The results of ERK activation assays are shown in Table 6 as relative fluorescence units (RFU). […] These same samples are equated with LAM numbers as represented in Table 7. […]

AGS cells = assay: Cell growth using bovine cathelicidin variants in AGS cells (SRB assay); format: cell-based, human; design: unit not given here; conditions: 72 hours; for cell growth Replicate 3: -ve control 0.233; for cell growth Replicate 1: -ve control 0.247; for cell growth Replicate 4: -ve control 0.265; for cell growth Replicate 2: -ve control 0.316; for cell growth Mean: -ve control mean 0.265
Description: A cellular growth assay was performed using seven bovine cathelicidin (CATHL) variants, namely CATHL1, 4, and 6 which are known in the art (the relevant sequences can be obtained using the following hyperlink: http://www.ncbi.nlm.nih.gov/entrez/query.fcqi?db=unigene&cmd=search&term=cathelicidin) and bovine Cathelicidins 8, 9, 10 and 11 (being LAMs 32.8, 32.9, 32.10 and 32.11, respectively) as identified herein and which are derived from LAM 32. The bovine cathelicidin associated LAMs were derived by sequence comparison to the tammar polynucleotide sequence of LAM 32.
The growth rate of AGS cells was assessed in the presence of the cathelicidins. Equal numbers of human gastric epithelial AGS cells were cultured in either control media or media conditioned with bovine cathelicidins for 72 hours in a 1:10 dilution of serum and antibiotic-free Optimem. Cells were then fixed and a Sulforhodamine B (SRB) colorimetric assay was undertaken as described in Journal of Immunological Methods 208: 151-158, K. T. Papazisis, G. D. Geromichalos, K. A. Dimitriadis, A. H. Kortsaris (1997), ‘Optimization of the sulforhodamine B colorimetric assay’.
Briefly, cells were fixed directly by incubation with 10% trichloroacetic acid for 1 hour at 4° C., washed with water, air-dried overnight and then stained with 0.4% w/v sulforhodamine B, 1% acetic acid solution for 10 minutes at room temperature. Cell were again washed with 1% acetic acid and air-dried, then counted in triplicate.

chicks = assay: Chick growth assay (in ovo injection, weight at hatching); format: in vivo; conditions: for Chick weight: bovine polypeptides in conditioned media, 1 ml in ovo on day 16 of incubation, weighed on day of hatching, Saline 51.0
Description: FIG. 5. Chick growth assay by measuring weight. 10 LAMs (being bovine homologues having homology to specific Tammar ESTs), 3 known bovine cathelicidins, and four bovine cathelicidin variants were tested. Conditioned media containing a LAM polypeptides or bovine cathelicidins or variants thereof was diluted in a total of 1 ml of normal saline. Eggs on day 16 of incubation were injected with 1 ml of the media containing the into the broad end of the egg. Chicks were weighed on day of hatching. The overall condition of the chick was assessed including the possible presence of stumpy legs and/or loss of down feathers.
Conditioned media containing LAM polypeptides or bovine cathelicidins or variants thereof were diluted in a total of 1 ml of normal saline. Eggs on day 16 of incubation were injected in ovo with 1 ml of LAM polypeptides or bovine cathelicidins or variants thereof into the broad end of the egg. Chicks were weighed on day of hatching. Controls included saline only, or saline and 10 mg/ml of a peptide as a random peptide control.
As set out in Table 23, the left column indicates the polypeptide used in the assay while the right column contains chick weight in grams as a measurement of chick growth. Bolded numbers represent a chick(s) larger than the controls and more than 2 standard deviations from the mean. In addition, bolded numbers represent chicks that have been killed. The mean represents the weight of all the chicks tested within this experiment.

[1] = tested on: HSC-2 oral epithelial cells; assay: Cell viability assay to assess anti- and pro-apoptotic effects (vinblastine, Alamar Blue); format: cell-based; conditions: HSC-2 cells
Description: as §1, §2
Vinblastine is a commonly used cytotoxic agent used in chemotherapy. It induces apoptosis in a wide variety of cell types. Caspase activation and DNA fragmentation are hallmarks of the apoptotic process.
Aliquots of the secreted polypeptide samples in 96 well plates were pipetted onto HSC-2 oral epithelial cells and the cells left for 24 hours. After this time, the cells were treated with vinblastine to induce apoptosis. After a further 48 hours, the cells were analyzed for survival using a vital dye, namely Alamar Blue (resazurin) fluorescent dye (TGR BioSciences Pty Ltd, Adelaide, Australia). This dye method is a TGR proprietary assay technology and as such would be known by a person skilled in the art. Internal controls for induction of cell death via apoptosis as well as assay performance were also included on each plate. Cell survival measurements with this technique reflected the degree of apoptosis.

p38 MAPK = p38 MAPK assay of inflammatory activity in the presence of LPS, RAW macrophage cells; format: cell-based
Description: as §1
A negative control created by transfection with an insertless vector was used in all assays. For the assays described in Examples 4A, 4B, 4C and 4D results for samples were in the form of relative fluorescence units (RFU) as described herein. […]
Activation of p38 MAPK was assessed in RAW macrophage cells in the presence of lipopolysaccharide (LPS), which is a potent stimulator of the immune system and which mimics bacterial infection, thereby providing a model system for inflammation. […]

Molecule | tammar ERK activity (ERK) | cell growth Replicate 3 (AGS cells) | cell growth Replicate 1 (AGS cells) | cell growth Replicate 4 (AGS cells) | cell growth Replicate 2 (AGS cells) | cell growth Mean (AGS cells) | Chick weight (chicks) | death / overall condition of chick (chicks; in ovo injection on day 16 of incubation) | RFU (pro-apoptotic activity) ([1]; Alamar Blue, Mean RFU 1758076, SD RFU 108156) | anti- or pro-apoptotic activity (RFU versus mean) ([1]; text summary of Tables 8-11) | anti-inflammatory activity (RFU significantly below the mean) (p38 MAPK; RAW macrophage cells with LPS, text summary of Tables 14 and 15) | RFU (p38 inhibition, anti-inflammatory activity) (p38 MAPK; RAW macrophage cells, 30 minutes sample then LPS 30 minutes, Mean RFU 35980, SD RFU 4227, negative control 45833 RFU)
CATHL1: bovine cathelicidin 1, known in the art (RLCRIVVIRVCR; UniProt P22226 144-155, looked up) [reference compound] | yes | 0.303 | 0.412 | 0.378 | 0.419 | 0.378 | 52.8 grams | – | – | – | – | –
CATHL2: bovine cathelicidin listed under LAM32, sample number 15 (RFRPPIRRPPIRPPFYPPFRPPIRPPIFPPIRPPFRPPLGPFP; UniProt P19660 131-173, looked up) | yes | – | – | – | – | – | – | – | – | – | – | –
CATHL5: bovine cathelicidin 5 (known sequence) (GGLRSLGRKILRAWKKYGPIIVPIIRIG; UniProt P54229 132-159, looked up) [reference compound] | yes | 0.382 | 0.423 | 0.415 | 0.441 | 0.415 | Killed | caused death of chicks | – | – | – | –
B1 | – | – | – | – | – | – | 49.2 grams | – | 1478245 RFU | pro-apoptotic activity | anti-inflammatory activity | 20814 RFU
